“Also recorded” adds a separate entry of the source. Read-outs that look alike come from different tables or passages of the source.
Columns and labels:
Format in all cases: cell-based
[1] = biological target: T1, NPC1L1 (Homo sapiens, UniProt Q9UHC9, T1073A)
T1 construct: expressed in transfected cells; host or cells: Huh7-derived cells; the L1 3+ line (NPC1L1-overexpressing clone 3) is proposed for screening
T1 sequence (Q9UHC9 22-1359 T1073A): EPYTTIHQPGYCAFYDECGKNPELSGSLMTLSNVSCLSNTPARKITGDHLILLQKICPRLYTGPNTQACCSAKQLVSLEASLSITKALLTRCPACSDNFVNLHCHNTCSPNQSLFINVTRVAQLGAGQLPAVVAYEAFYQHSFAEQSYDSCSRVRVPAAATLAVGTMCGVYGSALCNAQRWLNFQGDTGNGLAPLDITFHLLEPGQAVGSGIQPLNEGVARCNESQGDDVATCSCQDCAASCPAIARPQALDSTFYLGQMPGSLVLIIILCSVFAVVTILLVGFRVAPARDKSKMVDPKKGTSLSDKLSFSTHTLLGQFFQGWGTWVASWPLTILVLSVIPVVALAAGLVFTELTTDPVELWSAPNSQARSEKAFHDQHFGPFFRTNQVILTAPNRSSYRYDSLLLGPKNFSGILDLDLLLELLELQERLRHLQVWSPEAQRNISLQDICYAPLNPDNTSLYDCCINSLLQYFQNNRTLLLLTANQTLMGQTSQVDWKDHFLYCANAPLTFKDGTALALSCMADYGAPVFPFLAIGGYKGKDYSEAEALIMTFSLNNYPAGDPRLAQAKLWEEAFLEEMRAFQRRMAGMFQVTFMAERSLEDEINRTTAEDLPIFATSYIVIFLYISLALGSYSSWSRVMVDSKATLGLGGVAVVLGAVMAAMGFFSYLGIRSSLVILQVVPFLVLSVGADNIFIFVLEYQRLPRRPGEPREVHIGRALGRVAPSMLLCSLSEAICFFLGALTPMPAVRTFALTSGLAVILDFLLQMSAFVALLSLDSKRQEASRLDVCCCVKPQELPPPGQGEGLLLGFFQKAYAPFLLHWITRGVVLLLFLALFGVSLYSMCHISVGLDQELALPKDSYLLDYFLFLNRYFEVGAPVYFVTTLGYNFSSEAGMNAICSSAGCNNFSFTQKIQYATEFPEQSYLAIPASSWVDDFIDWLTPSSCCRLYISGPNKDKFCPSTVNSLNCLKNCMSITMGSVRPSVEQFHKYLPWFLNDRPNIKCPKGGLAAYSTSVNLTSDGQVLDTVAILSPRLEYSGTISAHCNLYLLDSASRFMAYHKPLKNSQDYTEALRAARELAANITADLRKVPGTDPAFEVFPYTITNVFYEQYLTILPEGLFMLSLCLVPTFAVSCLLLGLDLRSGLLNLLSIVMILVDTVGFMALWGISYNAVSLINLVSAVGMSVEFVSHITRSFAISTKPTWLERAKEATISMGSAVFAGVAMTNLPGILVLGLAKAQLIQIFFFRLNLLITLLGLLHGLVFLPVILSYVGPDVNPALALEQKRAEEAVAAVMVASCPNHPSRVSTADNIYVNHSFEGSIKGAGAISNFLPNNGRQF

[2] = biological target: T1, NPC1L1; remark: listed apart in the source
[3] = biological target: T2, NPC1 (Homo sapiens, UniProt O15118); test: Lysosomal cholesterol storage in normal human fibroblasts treated with inhibitor; conditions: normal human fibroblasts incubated overnight, fluorescent cholesterol probe, FIG. 6 and 7
T2 construct: endogenous in cells; host or cells: normal human fibroblasts
T2 sequence (O15118 23-1278): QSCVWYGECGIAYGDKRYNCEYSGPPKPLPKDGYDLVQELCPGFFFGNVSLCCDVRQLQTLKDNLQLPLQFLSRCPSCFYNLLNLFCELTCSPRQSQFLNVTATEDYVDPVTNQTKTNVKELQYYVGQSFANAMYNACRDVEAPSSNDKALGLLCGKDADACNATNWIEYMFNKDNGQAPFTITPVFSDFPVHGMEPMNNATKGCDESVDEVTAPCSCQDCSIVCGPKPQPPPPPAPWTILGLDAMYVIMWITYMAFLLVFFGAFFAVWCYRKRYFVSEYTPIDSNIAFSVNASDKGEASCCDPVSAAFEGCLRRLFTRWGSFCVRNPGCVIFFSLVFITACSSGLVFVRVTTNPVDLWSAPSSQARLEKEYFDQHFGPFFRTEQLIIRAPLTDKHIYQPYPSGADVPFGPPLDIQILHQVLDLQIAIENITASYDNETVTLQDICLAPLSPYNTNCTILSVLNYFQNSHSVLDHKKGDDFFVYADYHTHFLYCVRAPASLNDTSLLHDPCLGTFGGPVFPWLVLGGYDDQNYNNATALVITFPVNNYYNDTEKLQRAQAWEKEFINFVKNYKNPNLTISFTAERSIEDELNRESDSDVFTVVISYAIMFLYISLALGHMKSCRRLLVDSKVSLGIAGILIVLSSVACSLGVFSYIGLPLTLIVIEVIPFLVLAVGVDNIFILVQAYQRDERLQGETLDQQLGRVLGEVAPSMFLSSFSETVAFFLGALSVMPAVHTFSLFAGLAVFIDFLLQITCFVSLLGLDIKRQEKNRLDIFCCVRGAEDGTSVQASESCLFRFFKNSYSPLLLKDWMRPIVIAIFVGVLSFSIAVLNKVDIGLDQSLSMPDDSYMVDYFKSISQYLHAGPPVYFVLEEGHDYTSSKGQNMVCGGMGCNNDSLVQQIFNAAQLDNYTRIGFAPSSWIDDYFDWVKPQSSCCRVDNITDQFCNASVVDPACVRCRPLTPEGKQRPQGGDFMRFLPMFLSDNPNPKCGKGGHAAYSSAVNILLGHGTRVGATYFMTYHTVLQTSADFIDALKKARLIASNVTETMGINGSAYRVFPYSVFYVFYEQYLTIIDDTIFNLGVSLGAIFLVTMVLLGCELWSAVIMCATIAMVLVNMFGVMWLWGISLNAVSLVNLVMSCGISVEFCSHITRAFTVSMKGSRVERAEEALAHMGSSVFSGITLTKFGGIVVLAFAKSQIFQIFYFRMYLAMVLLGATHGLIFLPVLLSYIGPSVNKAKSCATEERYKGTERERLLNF

SMILES | identification as inhibitor of NPC1L1 [1] | signal of NPC1L1 promoter upregulation (inhibition of the NPC1L1 protein) [2] | further results
c1ccc2c(CN3CCNCC3)cccc2c1 [1-(1-naphthylmethyl)piperazine] | NPC1L1 inhibitors have been identified | – | –
CC(=O)C1=C(Nc2ccccc2C)CCC1=O [2-acetyl-3-[(2-methylphenyl)amino]-2-cyclopenten-1-one] | NPC1L1 inhibitors have been identified | positive signal | –
CC(Nc1ccccc1O)=C1C(=O)CSC1=O [3 {1-[(2-hydroxyphenyl)amino]ethylidene}-2,4(3H, 5H)-thiophenedione] | NPC1L1 inhibitors have been identified | positive signal | –
COc1ccccc1NC1=C(C)C(=O)CC1 [3-[(2-methoxyphenyl)amino]-2-methyl-2-cyclopenten-1-one] | NPC1L1 inhibitors have been identified | – | –
COc1ccc(NC2=C(C)C(=O)CC2)cc1 [3-[(4-methoxyphenyl)amino]-2-methyl-2-cyclopenten-1-one] | NPC1L1 inhibitors have been identified | – | –
CC(Nc1ccccc1C)=C1C(=O)CSC1=O [3{1-[(2-methylphenyl)amino]ethylidene}-2,4(3H, 5H)-thiophenedione] | NPC1L1 inhibitors have been identified | – | –
Cl.N#CC1(c2ccccc2)CCNCC1 [#1, 4-Phenyl-4-piperidinecarbonitrile Hydrochloride] | – | positive signal | NPC1 inhibition seen as lysosomal cholesterol build-up ([3]; hydrochloride): did not demonstrate any NPC1 inhibition; NPC1 inhibition seen as lysosomal cholesterol build-up ([3]; listed as 4-cyano-4-phenylpiperidine, Hydrochloride): weaker NPC1 inhibitor; identification as inhibitor of NPC1L1 ([1]; Hydrochloride): NPC1L1 inhibitors have been identified; also recorded: identified as an inhibitor of NPC1L1
CC1CCNCC1 [#2, 4-methylpiperidine] | – | – | NPC1 inhibition seen as lysosomal cholesterol build-up [3]: weaker NPC1 inhibitor
CCCC(=O)C1(c2ccccc2)CCNCC1.Cl [#5, 4-butyryl-4-phenylpiperidine hydrochloride] | – | – | NPC1 inhibition seen as lysosomal cholesterol build-up ([3]; hydrochloride): distinguishable lysosomes filled with cholesterol; NPC1 inhibition seen as lysosomal cholesterol build-up ([3]; listed as 4-butyryl-4-phenylpiperidine, hydrochloride): NPC1 inhibitor
CCCCN1CCCCC1C(=O)Nc1c(C)cccc1C (stereo not shown) [#7, 1-Butyl-N(2,6-diemethylphenyl)2 piperidine carboxamide] | NPC1L1 inhibitors have been identified | positive signal | –
O=C1[C@H](CC[C@H](O)c2ccc(F)cc2)[C@@H](c2ccc(O)cc2)N1c1ccc(F)cc1 [Ezetamibe, reference compound] | – | did not inhibit NPC1L1 | –
CC(=O)c1ccc(NC(=O)c2cccs2)cc1 [N-(4-acetylphenyl)-2-thiophenecarboxamide] | NPC1L1 inhibitors have been identified | – | –

Source: patent publication US20090035784A1 (priority 2004, published 2009)
